In the NIST ThermoML archive (doi:10.1016/j.jct.2006.10.008):
Numbers after ± are expanded uncertainties.

Key:
[1] = excess molar enthalpy (molar enthalpy of mixing); xn = mol fraction of the nth substance listed; conditions: 298.15 K, 101 kPa, Liquid, Calvet calorimetry
[2] = xn = mol fraction of the nth substance listed; conditions: 298.15 K, 101 kPa, Liquid

CCCOC=O [propyl methanoate] + ClCCCCCCCl
Conditions	excess molar enthalpy [kJ/mol]	mass density [kg/m3]
[1], x1 = 0.083	0.0666 ± 0.0013	–
[1], x1 = 0.1781	0.12 ± 0.0017	–
[1], x1 = 0.2715	0.158 ± 0.002	–
[1], x1 = 0.3516	0.177 ± 0.0021	–
[1], x1 = 0.4261	0.179 ± 0.0022	–
[1], x1 = 0.5	0.169 ± 0.0021	–
[1], x1 = 0.5567	0.147 ± 0.0019	–
[1], x1 = 0.6558	0.108 ± 0.0016	–
[1], x1 = 0.7057	0.0851 ± 0.0014	–
[1], x1 = 0.7584	0.0628 ± 0.0013	–
[1], x1 = 0.815	0.0416 ± 0.0011	–
[1], x1 = 0.8628	0.0252 ± 0.001	–
[1], x1 = 0.91	0.0122 ± 0.0009	–
[1], x1 = 0.9591	0.0089 ± 0.0009	–
[2], x1 = 0.0918	–	1053.78 ± 0.43
[2], x1 = 0.1702	–	1044.88 ± 0.41
[2], x1 = 0.2469	–	1035.63 ± 0.39
[2], x1 = 0.3218	–	1026.16 ± 0.37
[2], x1 = 0.3877	–	1017.4 ± 0.36
[2], x1 = 0.4551	–	1008 ± 0.34
[2], x1 = 0.5167	–	998.95 ± 0.32
[2], x1 = 0.5747	–	990.06 ± 0.33
[2], x1 = 0.6303	–	981.16 ± 0.34
[2], x1 = 0.6844	–	972.09 ± 0.36
[2], x1 = 0.7354	–	963.2 ± 0.37
[2], x1 = 0.7849	–	954.19 ± 0.38
[2], x1 = 0.8768	–	936.4 ± 0.4
[2], x1 = 0.9196	–	927.69 ± 0.41
[2], x1 = 0.9603	–	919.06 ± 0.42

ClCCCCCCl [1,5-dichloropentane] + CCCCOC=O
Conditions	excess molar enthalpy [kJ/mol]	mass density [kg/m3]
[1], x2 = 0.0722	0.003 ± 0.0008	–
[1], x2 = 0.1463	-0.0035 ± 0.0008	–
[1], x2 = 0.2242	-0.0226 ± 0.001	–
[1], x2 = 0.2989	-0.0464 ± 0.0012	–
[1], x2 = 0.3685	-0.0785 ± 0.0014	–
[1], x2 = 0.4319	-0.112 ± 0.0017	–
[1], x2 = 0.4894	-0.132 ± 0.0018	–
[1], x2 = 0.5395	-0.148 ± 0.0019	–
[1], x2 = 0.5701	-0.155 ± 0.002	–
[1], x2 = 0.5843	-0.154 ± 0.002	–
[1], x2 = 0.6266	-0.144 ± 0.0019	–
[1], x2 = 0.6861	-0.13 ± 0.0018	–
[1], x2 = 0.7462	-0.113 ± 0.0017	–
[1], x2 = 0.8107	-0.0904 ± 0.0015	–
[1], x2 = 0.8755	-0.0652 ± 0.0013	–
[1], x2 = 0.9382	-0.0374 ± 0.0011	–
[2], x2 = 0.0753	–	1081.49 ± 0.48
[2], x2 = 0.1366	–	1070.16 ± 0.46
[2], x2 = 0.2613	–	1046.7 ± 0.41
[2], x2 = 0.3251	–	1034.45 ± 0.39
[2], x2 = 0.3849	–	1022.81 ± 0.37
[2], x2 = 0.4446	–	1011 ± 0.34
[2], x2 = 0.5039	–	999.1 ± 0.32
[2], x2 = 0.6199	–	975.33 ± 0.35
[2], x2 = 0.676	–	963.59 ± 0.37
[2], x2 = 0.732	–	951.7 ± 0.38
[2], x2 = 0.787	–	939.85 ± 0.39
[2], x2 = 0.841	–	928.06 ± 0.41
[2], x2 = 0.8939	–	916.34 ± 0.42
[2], x2 = 0.9477	–	904.29 ± 0.44

COC=O [methyl methanoate] + ClCCCl
Conditions	excess molar enthalpy [kJ/mol]	mass density [kg/m3]
[1], x1 = 0.0754	0.0266 ± 0.001	–
[1], x1 = 0.1373	0.0459 ± 0.0011	–
[1], x1 = 0.1901	0.0634 ± 0.0013	–
[1], x1 = 0.2508	0.0793 ± 0.0014	–
[1], x1 = 0.3109	0.0916 ± 0.0015	–
[1], x1 = 0.3728	0.0996 ± 0.0016	–
[1], x1 = 0.4325	0.103 ± 0.0016	–
[1], x1 = 0.4874	0.103 ± 0.0016	–
[1], x1 = 0.5372	0.101 ± 0.0016	–
[1], x1 = 0.5928	0.0947 ± 0.0015	–
[1], x1 = 0.6569	0.086 ± 0.0014	–
[1], x1 = 0.7322	0.0733 ± 0.0013	–
[1], x1 = 0.8084	0.0578 ± 0.0012	–
[1], x1 = 0.8844	0.0398 ± 0.0011	–
[1], x1 = 0.9514	0.0205 ± 0.0009	–
[2], x1 = 0.0778	–	1227.3 ± 0.78
[2], x1 = 0.1458	–	1211.22 ± 0.75
[2], x1 = 0.2144	–	1194.43 ± 0.71
[2], x1 = 0.2795	–	1177.71 ± 0.68
[2], x1 = 0.3474	–	1160.37 ± 0.64
[2], x1 = 0.4099	–	1143.76 ± 0.61
[2], x1 = 0.4725	–	1126.96 ± 0.57
[2], x1 = 0.5316	–	1110.73 ± 0.54
[2], x1 = 0.5888	–	1094.68 ± 0.51
[2], x1 = 0.6463	–	1077.99 ± 0.48
[2], x1 = 0.6998	–	1062.25 ± 0.45
[2], x1 = 0.753	–	1046.16 ± 0.41
[2], x1 = 0.8045	–	1030.32 ± 0.38
[2], x1 = 0.8548	–	1014.49 ± 0.35
[2], x1 = 0.9043	–	998.6 ± 0.33
[2], x1 = 0.9525	–	982.78 ± 0.34

ClCCCCCl [1,4-dichlorobutane] + COC=O
Conditions	excess molar enthalpy [kJ/mol]	mass density [kg/m3]
[1], x2 = 0.1071	0.177 ± 0.0022	–
[1], x2 = 0.2326	0.335 ± 0.0034	–
[1], x2 = 0.3559	0.4443 ± 0.0042	–
[1], x2 = 0.4541	0.5006 ± 0.0047	–
[1], x2 = 0.5426	0.5185 ± 0.0048	–
[1], x2 = 0.5971	0.5148 ± 0.0048	–
[1], x2 = 0.6515	0.5096 ± 0.0047	–
[1], x2 = 0.7083	0.4875 ± 0.0046	–
[1], x2 = 0.7662	0.4518 ± 0.0043	–
[1], x2 = 0.8103	0.393 ± 0.0038	–
[1], x2 = 0.8803	0.316 ± 0.0033	–
[1], x2 = 0.9274	0.229 ± 0.0027	–
[1], x2 = 0.9702	0.134 ± 0.002	–
[2], x2 = 0.1002	–	1123.14 ± 0.57
[2], x2 = 0.1967	–	1112.22 ± 0.54
[2], x2 = 0.2763	–	1102.15 ± 0.52
[2], x2 = 0.3523	–	1092.16 ± 0.5
[2], x2 = 0.4263	–	1081.69 ± 0.48
[2], x2 = 0.4898	–	1072.05 ± 0.46
[2], x2 = 0.5567	–	1061.23 ± 0.44
[2], x2 = 0.615	–	1051.3 ± 0.42
[2], x2 = 0.6692	–	1041.41 ± 0.4
[2], x2 = 0.7199	–	1031.71 ± 0.39
[2], x2 = 0.7663	–	1022.34 ± 0.37
[2], x2 = 0.8116	–	1012.65 ± 0.35
[2], x2 = 0.8535	–	1003.36 ± 0.33
[2], x2 = 0.8907	–	994.7 ± 0.33
[2], x2 = 0.9302	–	985.1 ± 0.34
[2], x2 = 0.9657	–	976.07 ± 0.35
